Test results: the supplement of paper PMC10307832

Tests used:
Experiment in all cases: relative viability (nuclei count vs DMSO), 5 days (fraction); higher = more cells survive
EPLC-272H = test system: EPLC-272H
Outline: (§1)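 Nuclei were stained with Hoechst during a one-step fixation (final 0.05% Triton X-100, 1% formaldehyde, 1 ug/ml Hoechst) carried out 5 days after dosing, then counted on 4× images. The cells, lung cancer lines in 1536-well plates, had been dosed by pin tool the day after seeding with one drug alone or a fixed anchor-drug dose plus five library-drug doses (not always all listed) in √10 steps. Relative viability is the nuclei count in treated wells divided by that in vehicle wells, and each value is the median of duplicate plates.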

NCI-H358 = test system: NCI-H358
Outline: as §1

NCI-H1793 = test system: NCI-H1793
Outline: as §1

NCI-H647 = test system: NCI-H647
Outline: as §1

SW 1573 = test system: SW 1573
Outline: as §1

NCI-H1734 = test system: NCI-H1734
Outline: as §1

RERF-LC-KJ = test system: RERF-LC-KJ
Outline: as §1

ABC-1 = test system: ABC-1
Outline: as §1

UMC-11 = test system: UMC-11
Outline: as §1

NCI-H322M = test system: NCI-H322M
Outline: as §1

NCI-H441 = test system: NCI-H441
Outline: as §1

NCI-H2347 = test system: NCI-H2347
Outline: as §1

HCC-15 = test system: HCC-15
Outline: as §1

NCI-H2009 = test system: NCI-H2009
Outline: as §1

NCI-H1944 = test system: NCI-H1944
Outline: as §1

LC-2-ad = test system: LC-2-ad
Outline: as §1

LK-2 = test system: LK-2
Outline: as §1

NCI-H838 = test system: NCI-H838
Outline: as §1

NCI-H1915 = test system: NCI-H1915
Outline: as §1

NCI-H2023 = test system: NCI-H2023
Outline: as §1

A-427 = test system: A-427
Outline: as §1

Nc1cccc2c1CN(C1CCC(=O)NC1=O)C2=O (stereo not given) [Lenalidomide] + Cc1nc(NC(=O)N2CCC[C@H]2C(N)=O)sc1-c1ccnc(C(C)(C)C(F)(F)F)c1 [Alpelisib] (partner 2 µM)
relative viability (EPLC-272H; first compound 0.253 µM): 0.975 | relative viability (EPLC-272H; first compound 2.53 µM): 1.03 | relative viability (EPLC-272H; first compound 8 µM): 0.684 | relative viability (NCI-H358; first compound 0.253 µM): 0.902 | relative viability (NCI-H358; first compound 0.8 µM): 0.834 | relative viability (NCI-H358; first compound 2.53 µM): 0.838 | relative viability (NCI-H358; first compound 8 µM): 1.06 | relative viability (NCI-H1793; first compound 0.253 µM): 0.858 | relative viability (NCI-H1793; first compound 0.8 µM): 0.828 | relative viability (NCI-H1793; first compound 2.53 µM): 0.673 | relative viability (NCI-H1793; first compound 8 µM): 0.57 | relative viability (NCI-H647; first compound 0.253 µM): 1.22 | relative viability (NCI-H647; first compound 0.8 µM): 1.14 | relative viability (NCI-H647; first compound 2.53 µM): 1.1 | relative viability (NCI-H647; first compound 8 µM): 1.12 | relative viability (SW 1573; first compound 0.253 µM): 0.775 | relative viability (SW 1573; first compound 0.8 µM): 0.921 | relative viability (SW 1573; first compound 2.53 µM): 1.01 | relative viability (SW 1573; first compound 8 µM): 0.696 | relative viability (NCI-H1734; first compound 0.253 µM): 0.669 | relative viability (NCI-H1734; first compound 0.8 µM): 0.757 | relative viability (NCI-H1734; first compound 2.53 µM): 0.746 | relative viability (NCI-H1734; first compound 8 µM): 0.608 | relative viability (RERF-LC-KJ; first compound 0.253 µM): 0.624 | relative viability (RERF-LC-KJ; first compound 0.8 µM): 0.904 | relative viability (RERF-LC-KJ; first compound 2.53 µM): 0.752 | relative viability (RERF-LC-KJ; first compound 8 µM): 0.637 | relative viability (ABC-1; first compound 0.253 µM): 0.948 | relative viability (ABC-1; first compound 0.8 µM): 0.996 | relative viability (ABC-1; first compound 2.53 µM): 1.02 | relative viability (ABC-1; first compound 8 µM): 1.01 | relative viability (UMC-11; first compound 0.253 µM): 1.05 | relative viability (UMC-11; first compound 0.8 µM): 0.961 | relative viability (UMC-11; first compound 2.53 µM): 1.03 | relative viability (UMC-11; first compound 8 µM): 0.958 | relative viability (NCI-H322M; first compound 0.253 µM): 0.745 | relative viability (NCI-H322M; first compound 0.8 µM): 0.887 | relative viability (NCI-H322M; first compound 2.53 µM): 0.837 | relative viability (NCI-H322M; first compound 8 µM): 0.66 | relative viability (NCI-H441; first compound 0.253 µM): 0.74 | relative viability (NCI-H441; first compound 0.8 µM): 0.663 | relative viability (NCI-H441; first compound 2.53 µM): 0.917 | relative viability (NCI-H441; first compound 8 µM): 0.775 | relative viability (NCI-H2347; first compound 0.253 µM): 1.06 | relative viability (NCI-H2347; first compound 0.8 µM): 0.957 | relative viability (NCI-H2347; first compound 2.53 µM): 0.964 | relative viability (NCI-H2347; first compound 8 µM): 0.875 | relative viability (HCC-15; first compound 0.253 µM): 1.02 | relative viability (HCC-15; first compound 2.53 µM): 0.886 | relative viability (HCC-15; first compound 8 µM): 0.865 | relative viability (NCI-H2009; first compound 0.253 µM): 1.1 | relative viability (NCI-H2009; first compound 0.8 µM): 1.12 | relative viability (NCI-H2009; first compound 2.53 µM): 1.19 | relative viability (NCI-H2009; first compound 8 µM): 1.21 | relative viability (NCI-H1944; first compound 0.253 µM): 0.885 | relative viability (NCI-H1944; first compound 0.8 µM): 0.934 | relative viability (NCI-H1944; first compound 2.53 µM): 0.897 | relative viability (NCI-H1944; first compound 8 µM): 0.654 | relative viability (LC-2-ad; first compound 0.253 µM): 0.86 | relative viability (LC-2-ad; first compound 0.8 µM): 0.98 | relative viability (LC-2-ad; first compound 2.53 µM): 0.84 | relative viability (LC-2-ad; first compound 8 µM): 0.881 | relative viability (LK-2; first compound 0.253 µM): 1.11 | relative viability (LK-2; first compound 2.53 µM): 1.09 | relative viability (LK-2; first compound 8 µM): 1.03 | relative viability (NCI-H838; first compound 0.253 µM): 0.97 | relative viability (NCI-H838; first compound 0.8 µM): 1 | relative viability (NCI-H838; first compound 2.53 µM): 1.25 | relative viability (NCI-H838; first compound 8 µM): 0.896 | relative viability (NCI-H1915; first compound 0.253 µM): 0.984 | relative viability (NCI-H1915; first compound 0.8 µM): 1.07 | relative viability (NCI-H1915; first compound 2.53 µM): 1.13 | relative viability (NCI-H1915; first compound 8 µM): 1.07 | relative viability (NCI-H2023; first compound 0.253 µM): 0.594 | relative viability (NCI-H2023; first compound 0.8 µM): 0.745 | relative viability (NCI-H2023; first compound 2.53 µM): 0.697 | relative viability (NCI-H2023; first compound 8 µM): 0.61 | relative viability (A-427; first compound 0.253 µM): 1.11 | relative viability (A-427; first compound 2.53 µM): 1.09 | relative viability (A-427; first compound 8 µM): 1.02
